In series [1] the test system is heat shock protein 90 alpha family class B member 1 (HSP90AB1). The arrangement: method as in earlier work. Conditions: ref IUPHAR/BPS Guide to PHARMACOLOGY (geldanamycin pubmed_id 24984936), cited from earlier work; for IC50: read-out: original_affinity_median_nm (IC50).
The subject of series [2] is ZIKV (MR766). In words: Antiviral assay, ZIKV in Huh7 cells (4G2 immunostaining, high-content imaging). Particulars: for IC50: Zika virus, Huh-7, 72 h, read-out: IC50, ZIKV; for SI (CC50/IC50), ZIKV: Huh7 cells.
Series [3] concerns EBOVΔVP30-GFP virus (strain Zaire Mayinga). In words: microbe, parasite or virus in culture. Conditions: Zaire ebolavirus, 72 h, read-out: IC50, EBOVΔVP30-GFP.
The test system is the same in series [4].
Series [5] can be described thus: in vitro. Particulars: human.
The target in series [6] is (GGCT). On the set-up: method as in IUPHAR/BPS Guide to PHARMACOLOGY, pubmed_id 17260973. Particulars: assay_description: pKa= 9.71, ref IUPHAR/BPS Guide to PHARMACOLOGY, pubmed_id 17260973, cited from earlier work.
In series [7] the test system is SARS-CoV-2 RNA interacting human proteins. On the set-up: ACT_VALUE, ACT_TYPE ID50: unit not given here. Conditions: cited from earlier work.
For series [8], the target named is T1, HSP90AB1 (Homo sapiens, UniProt P08238).
T1 construct: HSP90AB1 protein was detected using a specific antibody after the A549 cells were treated with Cepharanthine; endogenous in cells; host or cells: A549
Type of series: cell-based.

Series [9] relates to SARS-CoV-2 (IPBCAMS-YL01/2020). In words: Antiviral assay, bona fide SARS-CoV-2 in Huh7.5.1 cells. Type of series: cell-based. Conditions: IPBCAMS-YL01/2020, human liver Huh7.5.1 cells.
The test system of series [10] is SARS-CoV-2 (IPBCAMS-YL01/2020). In words: microbe, parasite or virus in culture. Conditions: Severe acute respiratory syndrome coronavirus 2, A549-ACE2, 48 h, read-out: IC50 (half maximal inhibitory concentration), SARS-CoV-2 IPBCAMS-YL01/2020.
The subject of series [11] is SARS-CoV-2 (IPBCAMS-YL01/2020). In words: in vitro. Particulars: human.
The nature of series [12]: Cell viability assay (CellTiter-Glo), Huh7 cells. Particulars: human. (Cellular ATP, detected with luciferase, serves as a proxy for viable cell number.)
The subject of series [13] is SARS-CoV-2. On the set-up: method as in PMID 32707573. Particulars: at 2.5 μM; cited from earlier work.
A short description of series [14]: Solubility in water (statement in formulation method).
Series [15] addresses T1, HSP90AB1. In words: biochemical. Type of series: binding.
In series [16] the test system is SARS-CoV-2 virus entry. Conditions: read-out: IC50, antiviral activity in virus entry inhibitor screen; cited from earlier work.
Series [17] concerns SARS-CoV-2 (IPBCAMS-YL01/2020). On the set-up: species or system hACE2 transgenic mice. Particulars: mouse, in vivo.
Series [18] concerns isocitrate dehydrogenase (NADP(+)) 2 (IDH2). The arrangement: method as in IUPHAR/BPS Guide to PHARMACOLOGY, pubmed_id 32071674. Conditions: ref IUPHAR/BPS Guide to PHARMACOLOGY, pubmed_id 32071674; cited from earlier work.
In series [19] the target is aldehyde dehydrogenase 2 family member (ALDH2). On the set-up: method as in IUPHAR/BPS Guide to PHARMACOLOGY, pubmed_id 18613661. Conditions: In vitro inhibition of recombinant human mitochondrial aldehyde dehydrogenase, ref IUPHAR/BPS Guide to PHARMACOLOGY, pubmed_id 18613661, cited from earlier work.
For series [20], the system named is TUBB cytoskeletal networks. In words: Immunofluorescence of the TUBB-containing cytoskeleton in Caco-2 cells. The class given is cell-based, human. Conditions: 0.5 µM, 6 h.
In series [21] the target is TUBB (Homo sapiens, UniProt P07437). In words: Cellular thermal shift assay (CETSA) in A549 cells, TUBB. Type of series: cell-based.
The nature of series [22]: in vitro. Particulars: human. This is another data set of the same source.
The mark [23] stands for this setting: read-out: original_affinity_median_nm (Ki).

Entries after “also recorded” stand apart in the source; their conditions may differ.

T1 sequence (P08238 whole entry): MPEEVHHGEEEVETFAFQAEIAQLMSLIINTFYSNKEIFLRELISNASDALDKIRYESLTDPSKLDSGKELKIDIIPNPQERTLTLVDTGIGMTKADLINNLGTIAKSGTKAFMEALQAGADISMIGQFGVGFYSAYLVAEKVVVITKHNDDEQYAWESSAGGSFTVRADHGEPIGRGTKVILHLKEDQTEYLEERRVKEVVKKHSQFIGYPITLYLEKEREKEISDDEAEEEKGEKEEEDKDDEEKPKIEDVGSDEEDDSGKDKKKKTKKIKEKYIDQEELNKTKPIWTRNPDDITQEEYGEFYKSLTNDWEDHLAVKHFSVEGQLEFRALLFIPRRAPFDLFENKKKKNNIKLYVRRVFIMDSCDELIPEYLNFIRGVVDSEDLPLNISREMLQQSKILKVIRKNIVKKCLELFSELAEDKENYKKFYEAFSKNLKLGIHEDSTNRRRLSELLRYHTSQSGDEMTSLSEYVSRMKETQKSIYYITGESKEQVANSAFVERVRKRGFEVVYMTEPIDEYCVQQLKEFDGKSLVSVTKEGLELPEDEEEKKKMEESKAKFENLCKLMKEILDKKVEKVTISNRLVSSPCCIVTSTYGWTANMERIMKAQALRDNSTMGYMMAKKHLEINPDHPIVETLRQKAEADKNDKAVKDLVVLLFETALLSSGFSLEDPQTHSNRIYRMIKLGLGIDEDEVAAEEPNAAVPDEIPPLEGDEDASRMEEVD
TUBB, sequence (P07437 whole entry): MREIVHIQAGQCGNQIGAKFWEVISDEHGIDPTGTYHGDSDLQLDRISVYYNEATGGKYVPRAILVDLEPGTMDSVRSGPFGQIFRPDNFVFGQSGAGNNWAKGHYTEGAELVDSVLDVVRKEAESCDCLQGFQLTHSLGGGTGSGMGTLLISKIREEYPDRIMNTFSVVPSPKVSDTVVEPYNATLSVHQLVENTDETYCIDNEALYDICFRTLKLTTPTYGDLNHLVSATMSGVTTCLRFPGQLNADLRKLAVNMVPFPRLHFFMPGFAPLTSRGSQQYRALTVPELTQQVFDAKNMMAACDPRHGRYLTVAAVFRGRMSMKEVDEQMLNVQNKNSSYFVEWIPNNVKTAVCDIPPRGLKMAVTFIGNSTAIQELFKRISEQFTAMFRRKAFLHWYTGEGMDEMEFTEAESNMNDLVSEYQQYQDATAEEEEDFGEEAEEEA
TUBB, sequence (P68363 whole entry, further chain): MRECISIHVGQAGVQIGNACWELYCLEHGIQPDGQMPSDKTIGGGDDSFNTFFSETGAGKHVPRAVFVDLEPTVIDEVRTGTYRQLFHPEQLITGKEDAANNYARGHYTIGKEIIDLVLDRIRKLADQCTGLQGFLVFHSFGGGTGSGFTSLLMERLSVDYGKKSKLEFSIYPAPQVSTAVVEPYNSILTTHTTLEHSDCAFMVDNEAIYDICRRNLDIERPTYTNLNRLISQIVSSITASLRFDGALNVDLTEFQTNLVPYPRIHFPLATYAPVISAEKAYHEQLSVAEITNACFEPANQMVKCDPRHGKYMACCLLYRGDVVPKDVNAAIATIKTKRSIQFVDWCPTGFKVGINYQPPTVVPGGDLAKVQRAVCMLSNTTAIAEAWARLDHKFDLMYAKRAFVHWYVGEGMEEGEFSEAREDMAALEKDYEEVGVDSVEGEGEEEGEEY

As for `COC1=C2C[C@@H](C)C[C@H](OC)[C@H](O)[C@@H](C)/C=C(\C)[C@H](OC(N)=O)[C@@H](OC)/C=C\C=C(/C)C(=O)NC(=CC1=O)C2=O` [geldanamycin], in [1], the “affinity_median (pIC50)” value is recorded as 6.55 and the IC50 was 282 nM.
Regarding `COC(=O)[C@H]1[C@@H](O)[C@@]2(O)c3c(OC)cc(O[C@@H]4O[C@@H]([C@H](O)CO)CO[C@H]4OC)cc3O[C@@]2(c2ccc(OC)cc2)[C@@H]1c1ccccc1` [Silvestrol], the values for the IC50 in series [2] and in [3] were 10 nM and 20 nM, respectively. For the same compound, in series [4], the “SI (CC50/IC50), EBOVΔVP30-GFP” value came out at 0.50.
`CNC(=O)c1cc(Oc2ccc(NC(=O)Nc3ccc(Cl)c(C(F)(F)F)c3)cc2)ccn1` [Sorafenib] returned a CC50 in series [5] of 12900 nM.
As usually defined, the Ki is the dissociation constant of the complex between target and ligand, obtained from inhibition or displacement. `COP(=O)(CCC(N)C(=O)O)Oc1cccc(CC(=O)O)c1` (stereo not drawn) [GGsTop]: the “affinity_median (pKi)” value in series [6] is given as 3.77. In addition, in series [6] (setting [23]), the Ki is 170000 nM.
Consider `CC[C@]1(O)C[C@@H]2CN(CCc3c([nH]c4ccccc34)[C@@](C(=O)OC)(c3cc4c(cc3OC)N(C)[C@H]3[C@@](O)(C(=O)OC)[C@H](OC(C)=O)[C@]5(CC)C=CCN6CC[C@]43[C@@H]65)C2)C1` [vinblastine], for which, in series [7], the “ACT_VALUE, ACT_TYPE IC50” value is 9.
By Kd is commonly meant a measure of binding affinity in units of concentration. Consider `COc1ccc2cc1Oc1ccc(cc1)C[C@H]1c3c(cc4c(c3Oc3cc5c(cc3OC)CCN(C)[C@@H]5C2)OCO4)CCN1C` [Cepharanthine], for which, in [8], the “CETSA target engagement, HSP90AB1” value is listed as “targeted HSP90AB1; also recorded: bound to HSP90AB1 in cells”. Moreover, in series [2], the “SI (CC50/IC50), ZIKV” value is given as 10.97 and the IC50 is 2190 nM. Also, in [9], the “Antiviral effect against SARS-CoV-2 in Huh7.5.1 cells (in words)” value is listed as “confirmed”. The IC50 in series [10] worked out at 1670 nM. Also, the IC50 in series [3] worked out at 420 nM. In [11], the selectivity ratio was 18.5. The compound also gave a CC50 at 72 h in [12] of 24000 nM. Also, in series [13], the inhibition ratio is listed as > 40%. Further, the “SI (CC50/IC50), EBOVΔVP30-GFP” value in series [4] is reported as 12.10. The Solubility in water entry in [14] is recorded as “insoluble in water”. This compound displayed a Kd in series [15] of 3500 nM. Also, the IC50 in series [16] was 1400 nM. In addition, in series [17], the “Viral loads in the lungs vs vehicle group at 3 dpi (qPCR)” value is “no obvious differences” and the “Viral loads in the lungs vs vehicle group at 5 dpi (qPCR)” value is “significant reduction”. For the same compound, in series [17] (10 mg/kg), the “Expression level of IL6 in lung vs vehicle group” value is listed as “reduced”; the “Expression level of TNF in lung vs vehicle group” value is recorded as “reduced”; the “Lung injury and inflammation (H&E staining)” value was “the extent of damage was much relieved in lung tissue”.
As for `C[C@@H](Nc1nc(N[C@H](C)C(F)(F)F)nc(-c2cccc(Cl)n2)n1)C(F)(F)F` [vorasidenib], the “assay_description (result in words)” value in [18] is “Inhibits mutant IDH2”.
With `CCNC(=O)c1noc(-c2cc(C(C)C)c(O)cc2O)c1-c1ccc(CN2CCOCC2)cc1` [luminespib], in [1], the “affinity_median (pIC50)” value was 8.7 and the IC50 is 2 nM.
With `CC(=O)O[C@H]1C(=O)[C@@]2(C)[C@H]([C@H](OC(=O)c3ccccc3)[C@]3(O)C[C@H](OC(=O)[C@H](O)[C@@H](NC(=O)c4ccccc4)c4ccccc4)C(C)=C1C3(C)C)[C@]1(OC(C)=O)CO[C@@H]1C[C@@H]2O` [paclitaxel], in series [7], the “ACT_VALUE, ACT_TYPE EC50” value is reported as 8.05.
For the compound `CC(=O)O[C@@]12CO[C@@H]1C[C@H](O)[C@@]1(C)C(=O)[C@H](O)C3=C(C)[C@@H](OC(=O)[C@H](O)[C@@H](NC(=O)OC(C)(C)C)c4ccccc4)C[C@@](O)([C@@H](OC(=O)c4ccccc4)[C@H]21)C3(C)C` [docetaxel], the “ACT_VALUE, ACT_TYPE ID50” value in [7] is given as 6.699.
`COc1cc(O)c2c(=O)c(-c3ccc(O)cc3)coc2c1` [prunetin]: the “affinity_median (pKi)” value in series [19] is 6.35. Besides, the Ki in series [19] (setting [23]) is 450 nM.
With `C=C1C[C@@H]2CC[C@@]34C[C@H]5O[C@H]6[C@@H](O3)[C@H]3O[C@H](CC[C@@H]3O[C@H]6[C@H]5O4)CC(=O)C[C@@H]3[C@@H](OC)[C@@H](C[C@H](O)CN)O[C@H]3C[C@H]3O[C@@H](CC[C@@H]1O2)C[C@@H](C)C3=C` [eribulin], in series [7], the “ACT_VALUE, ACT_TYPE IC50” value was 8.23.
As for `CN1CCN(CCCN2c3ccccc3Sc3ccc(C(F)(F)F)cc32)CC1` [Trifluoperazine], the “SI (CC50/IC50), ZIKV” value in series [2] was 8.11. Also, the IC50 in [2] came out at 960 nM; in [10], 3460 nM; in [3], 1790 nM. Further, the “Antiviral effect against SARS-CoV-2 in Huh7.5.1 cells (in words)” value in [9] is listed as “confirmed”. Also, in series [20], the “Architecture of the TUBB cytoskeletal networks (immunofluorescence)” value is on record as “architecture of the TUBB cytoskeletal networks was disrupted”. Besides, the selectivity ratio in series [11] came out at 10.7. For the same compound, the CC50 at 72 h in [12] is 7790 nM. Also, the “SI (CC50/IC50), EBOVΔVP30-GFP” value in [4] amounted to 2.18. In [21], the “CETSA, thermal stability of TUBB” value was “slightly affected the thermal stability of TUBB”.
As to `CC(C)(O)CNc1nc(Nc2ccnc(C(F)(F)F)c2)nc(-c2cccc(C(F)(F)F)n2)n1` [Enasidenib, 2-Methyl-1-(4-(6-(trifluoromethyl)pyridin-2-yl)-6-(2-(trifluoromethyl)pyridin-4-ylamino)-1,3,5-triazin-2-ylamino)propan-2-ol], the IC50 in series [2] was determined as 13500 nM; in [10] it was 28000 nM. The same compound returned a CC50 in series [22] of 24900 nM. Also, in series [11], the selectivity ratio was determined as 1.17.
Turning to `COc1cc([C@@H]2c3cc4c(cc3[C@H](O)[C@H]3COC(=O)[C@H]23)OCO4)cc(OC)c1OC` [podophyllotoxin], the “ACT_VALUE, ACT_TYPE IC50” value in series [7] is given as 6.
Compound `COc1cc2c(cc1OC)[C@@H]1C(=O)c3ccc4c(c3O[C@@H]1CO2)C=CC(C)(C)O4` [Deguelin] registered a CC50 in series [5] of 34700 nM.

(Values after publication PMC8566969, “Comparison of viral RNA–host protein interactomes across pathogenic RNA viruses informs rapid antiviral drug discovery for SARS-CoV-2” (Cell Research, 2021).)
